This note sets out measurements from US9708247B2, “Modulators of the eIF2alpha pathway” (The Regents of the University of California, priority 2013, dated 2017).

A short description of one series: Toxicity in mice. In kind it is in vivo.
Another series relates to spatial learning. Nature of the series: Morris water maze (hidden platform, weak training). The series is classed as in vivo, mouse. Particulars: p<0.05. The procedure:
(§1) Eight to ten-week-old male C57BL/6J mice were used for behavioral experiments. Food and water were provided ad libitum, and mice were kept on a 12:12 h light/dark cycle (lights on at 08:00 h). All procedures complied with Canadian Council on Animal Care guidelines
Mice were trained in a water pool of 100 cm diameter with a hidden platform of 10 cm diameter. Mice were handled daily for 3 days before the experiment, and the training protocol consisted of 1 swimming trial per day. Each mouse swam until it found the hidden platform or 120 s, when it was gently guided to the platform and stayed there for 10 s before being returned to the cage. Immediately after the swimming trial the mice were injected intraperitoneally with ISRIB (0.25 mg/kg in saline, 1% DMSO). For the probe test, the platform was removed and each mouse was allowed to swim for 60 s, while its swimming trajectory was monitored with a video tracking system (HVS Image, Buckingham).

The next series has as its system contextual fear memory. Nature of the series: Contextual fear conditioning. Particulars: vs vehicle. The series is classed as in vivo, mouse. The procedure: as §1
Mice were handled for 3 days and thereafter injected daily intraperitoneally with ISRIB (0.25 mg/kg in saline, 1% DMSO) for 4 consecutive days. One hour after the last injection the mice were trained with the protocol, which consisted of a 2-min period of context exploration, followed by a single foot shock of 0.35 mA for 1 s. The mice were returned to their home cage 1 min after the shock. One and 24 h after training, the mice were tested for contextual fear memory by placing the animals in the conditioning context for a 4-min period. The incidence of freezing was scored in 5-s intervals as either “freezing” or “not freezing”. Percent of freezing indicates the number of intervals in which freezing was observed divided by total number of 5-s intervals. Statistical analyses were done by Student's t tests and one-way ANOVA followed by between-group comparisons using Tukey's posthoc test.

For the next series, the system named is eIF2α (p-Ser51). As to the kind of experiment: AlphaScreen SureFire eIF2α(p-Ser51) assay in U2OS cells. In kind it is cell-based, human. The conditions noted are these: U2OS. The procedure:
U2OS cells were plated on 96 well plates and left to recover overnight. Cells were treated with either with 2 μg/ml tunicamycin or 100 nM thapsigargin in the presence or absence of 100 nM ISRIB or with ISRIB alone for the indicated and the level of eIF2α phosphorylation was determined using the AlphaScreen SureFire eIF2α(p-Ser51) Assay kit (Perkin Elmer) following the manufacturer's recommendations. Plates were read in an Envision Xcite Multilabel Reader using the standard Alpha Screen settings.
(Alpha assays give light when donor and acceptor beads are brought close together.)

The subject of another series is global translation. As to the kind of experiment: Metabolic labeling (35S-methionine incorporation) in HEK293T cells. The series is classed as cell-based, human. The conditions noted are these: 100 nM thapsigargin plus 200 nM ISRIB. The procedure: HEK293T cells were seeded on 12 well plates, allowed to recover overnight and treated for the indicated times with the indicated compounds. The cells were subsequently switched to media lacking methionine and cysteine supplemented with the indicated compounds and 50 μCi of ^35S-methionine (Perkin Elmer) for 20 min. Cells were lysed by addition of SDS-PAGE loading buffer. Lysates were sonicated and equal amounts were loaded on SDS-PAGE gels (BioRad). The gel was dried and radioactive methionine incorporation was detected by exposure to a phosphor-screen and visualized with a Typhoon 9400 Variable Mode Imager (GE Healthcare).

Another series relates to CHOP. Nature of the series: CHOP immunofluorescence in U2OS cells. In kind it is cell-based, human. The conditions noted are these: 100 nM thapsigargin 2 h, 200 nM ISRIB. The procedure:
FIGS. 4A-4B. ISRIB impairs induction of the transcriptional network controlled by ATF4; (FIG. 4A) ER-stress dependent induction of CHOP and GADD34 mRNA is impaired in cells treated with ISRIB; qPCR analysis of total RNA extracted from U2OS cells treated with 2 μg/ml of tunicamycin in the presence or absence of 200 nM ISRIB for the indicated times; mRNA levels for each sample were normalized to GAPDH (N=4); P values are derived from a one tail Student's t-test for unpaired samples; statistical significance: CHOP, P=0.0006 (*); GADD34, P=0.0008 (*); (FIG. 4B) ISRIB blocks CHOP production during ER stress; an immunofluorescence analysis of U2OS cells treated with 100 nM thapsigargin for 2 h in the presence or absence of 200 nM ISRIB is shown; a secondary Alexa Dye 488 anti-mouse antibody and rhodamine-phalloidin were used to visualize CHOP and actin, respectively.
U2OS cells were seeded on Slide Flasks (Thermo Scientific) 18 h prior to processing for immunofluorescence. Cells (60% confluent) were fixed with 4% paraformaldehyde in PBS for 15 min. The cells were then rinsed 3 times with PBS and permeabilized with 0.3% Triton X-100. The fixed cells were rinsed 3 times with PBS and blocked for 1 h at room temperature in PBS supplemented with 0.1% Triton X-100 and 5% normal goat serum. […]

For series [1] the following is noted: mouse, in vivo, ip, 5 mg/kg.
Protocol: Intra-peritoneal (ip), and intra-venous (iv) routes of administration were performed on 6-7 wk old female CD-1 mice (Harlan Laboratories). Animals received a single, 5 mg/kg dose in groups of three mice/compound/route of administration. […] Blood (80 ul) was collected from the saphenous vein at intervals post-dosing (20 min, 1 h, 3 h, 8 h, 24 h) in EDTA containing collection tubes (Sarstadt CB300) and plasma was prepared for analysis. Compounds were detected by time-of-flight mass spectroscopy.

Usually AUC stands for concentration integrated over time. A low value points to low exposure. Turning to `O=C(COc1ccc(Cl)cc1)NC1CCC(NC(=O)COc2ccc(Cl)cc2)CC1` (stereo not drawn) [ISRIB], in “Toxicity in mice”, the toxicity result is given as “no overt toxicity”. For the same compound, in the series on spatial learning (24 h after last training session), the “probe test: preference for target quadrant” value was “significantly preferred the target quadrant”. In the series with spatial learning (mice, 0.25 mg/kg ip daily after training, vehicle 68.1+/−20 s), the “escape latency after 5 days of training” value was determined as 16.4 ± 4.8 s. Moreover, the “probe test: crossing of the platform location” value in the series with spatial learning (vs vehicle) is “increased crossing of the platform location”. In addition, the “freezing, short-term contextual fear memory” value in the series on contextual fear memory (1 h after training) is given as “No differences were observed”. Further, the “freezing, long-term contextual fear memory” value in the series on contextual fear memory (24 h after training, 0.25 mg/kg ip for 4 days, p<0.05) was “increased freezing”. Moreover, in the series on eIF2α (p-Ser51) (no ER stress, 120 min), the “effect on eIF2α phosphorylation, compound alone” value is listed as “no effect on eIF2α phosphorylation”. Also, the “effect on eIF2α phosphorylation upon ER stress” value in the series on eIF2α (p-Ser51) (tunicamycin or thapsigargin plus 100 nM ISRIB) is “did not block eIF2α phosphorylation”. Further, the “effect on thapsigargin-induced drop in translation” value with global translation is given as “abolished”. In addition, the “CHOP accumulation after induction of ER stress” value with CHOP was “no CHOP accumulation”. For the same compound, in series [1], the AUC amounted to 3318 ng·h/mL, the CLt amounted to 8.318 mL/h, the F % is recorded as 13.8% and the T½ came out at 8.43 h. The compound further showed a Vd in series [1] of 96.0261 mL.
